Among the data in patent US9580413B2, “Substituted pyrrolidines as ROS tyrosine kinase inhibitors” (NIPPON SHINYAKU CO., LTD., priority 2012, dated 2017) are GI50 and IC50 values, retold here.

One assay addresses T1, FIG-ROS/BaF3 cell (Homo sapiens, UniProt P08922).
T1 construct: fused on or other part: Q9HD26 (Golgi-associated PDZ and coiled-coil motif-containing protein)
The experiment in a line: Proliferation inhibitory activity test against FIG-ROS/BaF3 cell. In kind it is cell-based. The note with it: 3 days incubation, cell counting kit; read-out: Proliferation inhibitory activity against FIG-ROS/BaF3 cell (IC50). As for the experimental part: A BaF3 cell which had been transformed by introducing the FIG-ROS fusion gene (derived from U118MG human glioma cell) (FIG-ROS/BaF3 Cell) was prepared on a culture medium, seeded on a 96-well plate in the number of 1×10^3/100 μL per well, and then allowed to stand in a CO2 incubator (at 37° C. and 5% CO2). As the culture medium, 10% FBS (fetal bovine serum)-incorporated RPMI-1640 was used.
2. Proliferation Inhibitory Activity Test:
A test substance was dissolved in dimethyl sulfoxide (DMSO) to 10 mM and further diluted with DMSO to 100-fold to prepare a 100 μM solution. This was diluted with a 1% DMSO-incorporated medium to concentrations of 10-fold of the concentration to be measured (10,000, 1,000, 100, 10, and 1 nM). Each of the medicine solutions was added at 11 μL per well and mixed. To a control having no medicine added thereto, a 1% DMSO-incorporated medium was added, and incubated in a CO2 incubator (at 37° C. and 5% CO2) for 3 days. After completion of the incubation, the number of live cells was counted using a cell counting kit. First of all, each cell counting kit solution was added at 5 μL per well and mixed, and incubated in a CO2 incubator (at 37° C. and 5% CO2) for 4 hours. An absorbance at 450 nm was measured with a microplate reader (Model 3550, manufactured by BIO-RAD, Benchmark, manufactured by BIO-RAD, or iMARK, manufactured by BIO-RAD) with a reference wavelength of 650 nm.
(§1) 3. Analysis of Measurement Results:
A non-linear regression analysis was performed for the measured absorbance with an SAS system (SAS Institute Inc.), and a concentration of each of the test substances of inhibiting the cell proliferation at 50% (IC50) was calculated. The proliferation inhibitory activity (IC50, nM) of each of the test substances against the FIG-ROS/BaF3 cell is shown in Table 9.
(In general: Formazan colour is commonly taken as a measure of viable cells.)

Another assay deals with T2, JAK2 tyrosine kinase (Homo sapiens, UniProt O60674).
T2 construct: purchased Carna Biosciences, Inc
The experiment in a line: JAK2 tyrosine kinase inhibitory activity test (ELISA). In kind it is biochemical, humans. The note with it: 25 μM ATP substrate solution, 30° C., one hour. As for the experimental part:
(§2) 1. Preparation of Test Substance:
(§3) A test substance was dissolved in dimethyl sulfoxide (DMSO) to 10 mM and further diluted with DMSO to concentrations of 100-fold of the concentrations to be measured (100, 10, 1, 0.1, and 0.01 μM). Furthermore, the resultant was diluted with an assay buffer to 20-fold, thereby preparing a solution as a test substance solution. A solution prepared by diluting DMSO with an assay buffer to 20-fold was used as a negative control. A buffer containing 15 mM Tris-Cl (pH 7.5), 0.01 (v/v) % Tween-20, and 1 mM dithiothreitol was used as the assay buffer.
(§4) 2. Measurement of ROS Tyrosine Kinase Activity and JAK2 Tyrosine Kinase Activity:
(§5) The activity was measured by adopting the ELISA method. […] Finally, an ROS kinase or a JAK2 kinase (derived from humans, Carna Biosciences, Inc.) (diluted with the assay buffer to 0.25 nM) was added to the plate at 20 μL per well, and the resulting mixture was stirred. A reaction was performed at 30° C. for one hour. After the plate was washed 4 times with a washing buffer (50 mM Tris-Cl (pH 7.5), 150 mM NaCl, and 0.02 (v/v) % Tween-20), a blocking buffer (0.1% bovine serum albumin, 50 mM Tris-Cl (pH 7.5), 150 mM NaCl, and 0.02 (v/v) % Tween-20) was added to the plate at 150 μL per well, and incubated at 30° C. for 30 minutes. The blocking buffer was then removed, and a horse radish peroxidase-labeled anti-phosphorylated tyrosine antibody (BD Biosciences, Inc.) (diluted with the blocking buffer to 10,000-fold) was added to the plate at 100 μL per well, and the plate was incubated at 30° C. for 30 minutes. After the plate was washed 4 times with the washing buffer, a 3,3′,5,5′-tetramethylbenzidine solution (Sigma-Aldrich Co., Ltd.) was added to the plate at 100 μL per well to develop the color for 10 minutes. The reaction was stopped by adding 0.1 M sulfuric acid at 100 μL per well. An absorbance at 450 nm was measured with a microplate reader (Model 3550, manufactured by BIO-RAD, Benchmark, manufactured by BIO-RAD, or iMARK, manufactured by BIO-RAD).
as §1
(§6) A non-linear regression analysis was performed for the measured absorbance with an SAS system (SAS Institute Inc.), and a concentration of each of the test substances of inhibiting the ROS tyrosine kinase activity or JAK2 tyrosine kinase activity at 50% (IC50) was calculated. The inhibitory activity (IC50, nM) of each of the test substances against the ROS tyrosine kinase or JAK2 tyrosine kinase is shown in Tables 6 to 8.
For orientation: In an ELISA, binding on a coated surface is turned into a signal by an enzyme label.

Another assay concerns the target T3, ROS tyrosine kinase (Homo sapiens, UniProt P08922).
T3 construct: purchased Carna Biosciences, Inc
Nature of the assay: ROS tyrosine kinase inhibitory activity test (ELISA). The format is biochemical, humans. As to conditions: 25 μM ATP substrate solution, 30° C., one hour. As for the experimental part: as §2, §3, §4, §5, §1, §6

Where a name gives a salt, the structure may show the parent alone.

T1 sequence (P08922 whole entry, change not shown, the tested form may be a part): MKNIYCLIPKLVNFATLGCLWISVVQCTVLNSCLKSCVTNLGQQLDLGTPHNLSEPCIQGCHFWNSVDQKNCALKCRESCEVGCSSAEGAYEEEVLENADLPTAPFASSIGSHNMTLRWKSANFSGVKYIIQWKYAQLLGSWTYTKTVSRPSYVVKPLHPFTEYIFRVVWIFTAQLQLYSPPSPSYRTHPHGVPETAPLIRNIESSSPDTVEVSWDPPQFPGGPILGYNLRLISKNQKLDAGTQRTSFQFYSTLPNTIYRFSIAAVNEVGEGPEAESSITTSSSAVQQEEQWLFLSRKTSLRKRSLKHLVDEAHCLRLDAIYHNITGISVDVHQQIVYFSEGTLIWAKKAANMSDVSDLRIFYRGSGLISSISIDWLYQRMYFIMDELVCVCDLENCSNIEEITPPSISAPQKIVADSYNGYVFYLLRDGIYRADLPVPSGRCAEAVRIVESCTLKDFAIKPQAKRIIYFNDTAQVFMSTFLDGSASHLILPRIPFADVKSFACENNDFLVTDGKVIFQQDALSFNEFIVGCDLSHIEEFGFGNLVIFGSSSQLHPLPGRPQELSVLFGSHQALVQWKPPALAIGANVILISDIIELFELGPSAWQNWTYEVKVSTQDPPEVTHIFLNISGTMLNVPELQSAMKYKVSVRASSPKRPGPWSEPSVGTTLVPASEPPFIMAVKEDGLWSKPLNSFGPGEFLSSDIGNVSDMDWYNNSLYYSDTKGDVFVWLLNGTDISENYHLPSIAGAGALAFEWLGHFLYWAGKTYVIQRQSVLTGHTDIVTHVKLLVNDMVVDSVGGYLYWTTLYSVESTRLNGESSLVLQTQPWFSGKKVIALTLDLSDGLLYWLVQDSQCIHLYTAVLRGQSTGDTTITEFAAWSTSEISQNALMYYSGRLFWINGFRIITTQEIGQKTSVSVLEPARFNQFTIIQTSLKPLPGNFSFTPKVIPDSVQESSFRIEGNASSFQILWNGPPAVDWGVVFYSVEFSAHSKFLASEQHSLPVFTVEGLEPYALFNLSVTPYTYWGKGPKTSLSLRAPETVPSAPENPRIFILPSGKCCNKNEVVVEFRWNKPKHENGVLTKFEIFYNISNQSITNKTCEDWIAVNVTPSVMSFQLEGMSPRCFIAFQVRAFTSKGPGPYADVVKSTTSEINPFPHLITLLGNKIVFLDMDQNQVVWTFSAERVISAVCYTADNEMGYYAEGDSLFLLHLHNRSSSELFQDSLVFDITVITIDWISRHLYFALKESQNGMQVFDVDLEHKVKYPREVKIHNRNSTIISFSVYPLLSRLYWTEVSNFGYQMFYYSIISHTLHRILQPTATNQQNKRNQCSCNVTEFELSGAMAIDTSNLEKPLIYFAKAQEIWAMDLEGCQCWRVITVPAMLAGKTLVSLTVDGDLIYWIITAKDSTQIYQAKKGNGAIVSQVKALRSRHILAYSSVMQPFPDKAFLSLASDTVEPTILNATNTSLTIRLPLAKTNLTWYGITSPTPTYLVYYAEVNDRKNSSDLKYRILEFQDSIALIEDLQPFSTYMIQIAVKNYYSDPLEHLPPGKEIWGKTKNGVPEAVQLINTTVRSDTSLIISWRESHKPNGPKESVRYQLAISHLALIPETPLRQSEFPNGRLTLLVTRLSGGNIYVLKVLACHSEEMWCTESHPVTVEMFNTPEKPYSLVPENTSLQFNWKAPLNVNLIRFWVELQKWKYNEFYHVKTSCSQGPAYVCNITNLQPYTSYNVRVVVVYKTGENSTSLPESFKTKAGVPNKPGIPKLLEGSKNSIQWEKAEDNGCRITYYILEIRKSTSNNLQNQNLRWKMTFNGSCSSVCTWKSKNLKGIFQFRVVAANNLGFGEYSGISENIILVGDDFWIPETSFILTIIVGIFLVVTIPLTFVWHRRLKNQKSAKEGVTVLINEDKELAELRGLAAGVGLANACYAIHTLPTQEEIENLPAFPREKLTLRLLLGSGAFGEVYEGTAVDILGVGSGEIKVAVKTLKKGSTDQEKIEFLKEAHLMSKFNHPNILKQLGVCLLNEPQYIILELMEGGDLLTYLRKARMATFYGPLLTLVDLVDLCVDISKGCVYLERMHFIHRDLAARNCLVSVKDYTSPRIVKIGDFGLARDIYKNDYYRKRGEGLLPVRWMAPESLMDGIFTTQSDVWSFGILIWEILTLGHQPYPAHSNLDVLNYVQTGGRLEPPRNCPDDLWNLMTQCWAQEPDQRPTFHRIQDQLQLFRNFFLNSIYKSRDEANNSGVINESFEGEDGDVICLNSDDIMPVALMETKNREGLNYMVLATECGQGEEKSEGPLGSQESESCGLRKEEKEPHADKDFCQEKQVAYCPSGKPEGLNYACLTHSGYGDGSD
T2 sequence (O60674 whole entry): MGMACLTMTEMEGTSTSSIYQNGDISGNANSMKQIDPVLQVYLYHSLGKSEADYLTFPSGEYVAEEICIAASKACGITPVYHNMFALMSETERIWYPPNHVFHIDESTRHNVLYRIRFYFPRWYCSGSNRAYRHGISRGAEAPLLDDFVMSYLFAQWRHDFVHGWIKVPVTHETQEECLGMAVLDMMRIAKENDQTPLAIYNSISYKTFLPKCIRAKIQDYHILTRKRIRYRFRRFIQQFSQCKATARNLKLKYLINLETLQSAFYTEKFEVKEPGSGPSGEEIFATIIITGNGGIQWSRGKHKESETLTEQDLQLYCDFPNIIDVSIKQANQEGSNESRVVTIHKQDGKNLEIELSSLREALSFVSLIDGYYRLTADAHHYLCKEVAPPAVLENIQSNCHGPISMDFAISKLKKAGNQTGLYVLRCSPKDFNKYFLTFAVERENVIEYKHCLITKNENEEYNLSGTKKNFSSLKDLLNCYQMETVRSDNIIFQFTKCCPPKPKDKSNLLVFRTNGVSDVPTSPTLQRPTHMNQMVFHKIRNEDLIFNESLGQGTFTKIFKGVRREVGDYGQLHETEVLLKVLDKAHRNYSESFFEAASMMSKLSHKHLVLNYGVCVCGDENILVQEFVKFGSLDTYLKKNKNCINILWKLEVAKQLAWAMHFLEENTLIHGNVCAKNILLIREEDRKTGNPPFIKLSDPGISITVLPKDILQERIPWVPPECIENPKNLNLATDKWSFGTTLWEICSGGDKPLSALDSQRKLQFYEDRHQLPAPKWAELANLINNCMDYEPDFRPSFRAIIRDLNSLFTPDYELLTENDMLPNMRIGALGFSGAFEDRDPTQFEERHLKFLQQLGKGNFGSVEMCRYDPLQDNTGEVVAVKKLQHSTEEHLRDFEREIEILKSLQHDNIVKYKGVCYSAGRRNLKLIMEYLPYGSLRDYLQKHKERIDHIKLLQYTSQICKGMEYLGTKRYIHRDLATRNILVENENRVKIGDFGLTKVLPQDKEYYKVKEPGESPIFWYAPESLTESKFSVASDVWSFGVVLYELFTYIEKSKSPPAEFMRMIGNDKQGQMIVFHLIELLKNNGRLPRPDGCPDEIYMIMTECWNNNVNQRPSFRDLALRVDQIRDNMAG

The IC50 is the concentration needed to halve the response being measured. Low values mean greater potency, high ones weaker potency. `Cc1ccc([C@@H]2CCCN2c2cnc(C3CC3)c(Nc3ncc(C)s3)n2)cc1` [Example 34, 3-Cyclopropyl-6-[(2S)-2-(4-methylphenyl)pyrrolidin-1-yl]-N-(5-methyl-1,3-thiazol-2-yl)pyrazine-2-amine]: at FIG-ROS/BaF3 cell, the GI50 stood at 12 nM. The figures for the IC50 against JAK2 tyrosine kinase and against ROS tyrosine kinase were greater than 1000 nM and 4.1 nM, respectively.
As to `CCc1cnc(Nc2cncc(N3CCCC3c3ccc(C)cc3)n2)s1` (stereo not shown) [Example 45, N-(5-Ethyl-1,3-thiazol-2-yl)-6-[2-(4-methylphenyl)pyrrolidin-1-yl]pyrazine-2-amine], the GI50 on FIG-ROS/BaF3 cell worked out at 7.6 nM. Also, the results for the IC50 at JAK2 tyrosine kinase and on ROS tyrosine kinase were 210 nM and 7.3 nM, respectively.
Taken in the same sequence, the figures for `COc1c(Nc2ncc(C#N)s2)nc(N2CCC[C@H]2c2ccc(C)cc2)nc1-c1cnn(CCO)c1` [Example 59, 2-({6-[1-(2-Hydroxyethyl)-1H-pyrazol-4-yl]-5-methoxy-2-[(2S)-2-(4-methylphenyl)pyrrolidin-1-yl]pyrimidin-4-yl}amino)-1,3-thiazole-5-carbonitrile] were 1.3 nM, 190 nM and 1.5 nM.
On the same counts, the results for `COc1c(Nc2ncc(C#N)s2)nc(N2CCCC2c2ccc(C)cc2)nc1-c1ccc(C(N)=O)cc1` (stereo not shown) [Example 4, 4-{6-[(5-Cyano-1,3-thiazol-2-yl)amino]-5-methoxy-2-[2-(4-methylphenyl)pyrrolidin-1-yl]pyrimidin-4-yl}benzamide] are 2.6 nM, greater than 1000 nM and 35 nM.
Taken in the same sequence, the figures for `COc1c(Nc2ncc(C#N)s2)nc(N2CCCC2c2ccc(C)cc2)nc1-c1cnco1` (stereo not shown) [Example 11, 2-({5-Methoxy-2-[2-(4-methylphenyl)pyrrolidin-1-yl]-6-(1,3-oxazol-5-yl)pyrimidin-4-yl}amino)-1,3-thiazole-5-carbonitrile] were 2.2 nM, greater than 1000 nM and 2.7 nM.
For the molecule `COc1c(C)nc(N2CCC[C@H]2c2ccc(C)cc2)nc1Nc1ncc(C#N)s1` [Example 9, 2-({5-Methoxy-6-methyl-2-[(2S)-2-(4-methylphenyl)pyrrolidin-1-yl]pyrimidin-4-yl}amino)-1,3-thiazole-5-carbonitrile maleate], the GI50 on FIG-ROS/BaF3 cell stood at 2.1 nM. The IC50 at JAK2 tyrosine kinase was determined as 500 nM; at ROS tyrosine kinase it was 0.6 nM.
On to `N#Cc1cnc(Nc2cncc(N3CCCC3c3ccc(C(F)(F)F)cc3)n2)s1` (stereo not shown) [Example 39, 2-[(6-{2-[4-(Trifluoromethyl)phenyl]pyrrolidin-1-yl}pyrazin-2-yl)amino]-1,3-thiazole-5-carbonitrile], for which, at FIG-ROS/BaF3 cell, the GI50 came to 4.5 nM. The values for the IC50 against JAK2 tyrosine kinase and on ROS tyrosine kinase were greater than 1000 nM and 12 nM, respectively.
On the same counts, the results for `Cc1ccc([C@@H]2CCCN2c2cnc(C)c(Nc3ncc(C)s3)n2)cc1` [Example 29, 3-Methyl-6-[(2S)-2-(4-methylphenyl)pyrrolidin-1-yl]-N-(5-methyl-1,3-thiazol-2-yl)pyrazine-2-amine] are 4.3 nM, 140 nM and 1.3 nM.
Consider `Cc1nc(C2CC2)c(Nc2ncc(C#N)s2)nc1N1CCCC1c1ccc(Cl)cc1` (stereo not shown) [Example 44, 2-({6-[2-(4-Chlorophenyl)pyrrolidin-1-yl]-3-cyclopropyl-5-methylpyrazin-2-yl}amino)-1,3-thiazole-5-carbonitrile], for which the IC50 on JAK2 tyrosine kinase was no less than 1000 nM; on ROS tyrosine kinase it was 13 nM.
Taken in the same sequence, the figures for `Cc1ccc(C2CCCN2c2ncc(C)c(Nc3ncc(C#N)s3)n2)cc1` (stereo not shown) [Example 2, 2-({5-Methyl-2-[2-(4-methylphenyl)pyrrolidin-1-yl]pyrimidin-4-yl}amino)-1,3-thiazole-5-carbonitrile] were 270 nM and 3.2 nM.
Taken in the same sequence, the figures for `N#Cc1cnc(Nc2nc(N3CCCC3c3ccc(F)cc3)cnc2-c2ccoc2)s1` (stereo not shown) [Example 25, 2-({6-[2-(4-Fluorophenyl)pyrrolidin-1-yl]-3-(furan-3-yl)pyrazin-2-yl}amino)-1,3-thiazole-5-carbonitrile] were greater than 1000 nM and 26 nM.
`N#Cc1cnc(Nc2nc(N3CCC[C@H]3c3ccc(Cl)cc3)cnc2C2CC2)s1` [Example 36, 2-({6-[(2S)-2-(4-Chlorophenyl)pyrrolidin-1-yl]-3-cyclopropylpyrazin-2-yl}amino)-1,3-thiazole-5-carbonitrile]: the IC50 against JAK2 tyrosine kinase was 240 nM; against ROS tyrosine kinase, 1 nM.
Taken in the same sequence, the figures for `Cc1cnc(Nc2nc(N3CCCC3c3ccc(Cl)cc3)cnc2C2CC2)s1` (stereo not shown) [Example 31, 6-[2-(4-Chlorophenyl)pyrrolidin-1-yl]-3-cyclopropyl-N-(5-methyl-1,3-thiazol-2-yl)pyrazine-2-amine] were 390 nM and 5.3 nM.
Taken in the same sequence, the figures for `Cc1ccc(C2CCCN2c2nc(Nc3ncc(C#N)s3)c(C)c(-c3cnn(C)c3)n2)cc1` (stereo not shown) [Example 8, 2-({5-Methyl-2-[2-(4-methylphenyl)pyrrolidin-1-yl]-6-(1-methyl-1H-pyrazol-4-yl)pyrimidin-4-yl}amino)-1,3-thiazole-5-carbonitrile] were greater than 1000 nM and 3.9 nM.
For `Cc1ncc(N2CCCC2c2ccc(Cl)cc2)nc1Nc1ncc(C#N)s1` (stereo not shown) [Example 42, 2-({6-[2-(4-Chlorophenyl)pyrrolidin-1-yl]-3-methylpyrazin-2-yl}amino)-1,3-thiazole-5-carbonitrile], the values for the IC50 against JAK2 tyrosine kinase and at ROS tyrosine kinase were 100 nM and 1.6 nM, respectively.
For `COc1cccc(C2CCCN2c2cncc(Nc3ncc(C#N)s3)n2)c1` (stereo not shown) [Example 38, 2-({6-[2-(3-Methoxyphenyl)pyrrolidine-1-yl]pyrazin-2-yl}amino)-1,3-thiazole-5-carbonitrile], the IC50 against JAK2 tyrosine kinase is 620 nM; on ROS tyrosine kinase, 18 nM.
With `Cc1ccc(C2CCCN2c2nc(C)c(C)c(Nc3ncc(C#N)s3)n2)cc1` (stereo not shown) [Example 52, 2-({5,6-Dimethyl-2-[2-(4-methylphenyl)pyrrolidin-1-yl]pyrimidin-4-yl}amino)-1,3-thiazole-5-carbonitrile], the IC50 on JAK2 tyrosine kinase worked out at 170 nM; against ROS tyrosine kinase it was 1.8 nM.
On the same counts, the results for `N#Cc1cnc(Nc2nc(N3CCCC3c3ccc(F)cc3)cnc2C2CC2)s1` (stereo not shown) [Example 40, 2-({3-Cyclopropyl-6-[2-(4-fluorophenyl)pyrrolidin-1-yl]pyrazin-2-yl}amino)-1,3-thiazole-5-carbonitrile] are 230 nM and 2.1 nM.
`COc1c(Nc2ncc(C#N)s2)nc(N2CCCC2c2ccc(C)cc2)nc1-c1cccnc1` (stereo not shown) [Example 5, 2-({5-Methoxy-2-[2-(4-methylphenyl)pyrrolidin-1-yl]-6-(pyridin-3-yl)pyrimidin-4-yl}amino)-1,3-thiazole-5-carbonitrile]: the IC50 against JAK2 tyrosine kinase was greater than 1000 nM; on ROS tyrosine kinase, 8.1 nM.
